{
  "source": "PubChem BioAssay (NCI)",
  "test_in_all_cases": "growth of human tumour cells (NCI), 48 h",
  "key": {"NCI-H226 lung": {"test_system": "NCI-H226 lung"}, "NCI-H23 lung": {"test_system": "NCI-H23 lung"}, "NCI-H460 lung": {"test_system": "NCI-H460 lung"}, "NCI-H522 lung": {"test_system": "NCI-H522 lung"}, "NCI/ADR-RES ovarian": {"test_system": "NCI/ADR-RES ovarian"}, "OVCAR-3 ovarian": {"test_system": "OVCAR-3 ovarian"}, "OVCAR-4 ovarian": {"test_system": "OVCAR-4 ovarian"}, "OVCAR-5 ovarian": {"test_system": "OVCAR-5 ovarian"}, "OVCAR-8 ovarian": {"test_system": "OVCAR-8 ovarian"}, "PC-3 prostate": {"test_system": "PC-3 prostate"}, "RPMI-8226 leukemia": {"test_system": "RPMI-8226 leukemia"}, "RXF 393 renal": {"test_system": "RXF 393 renal"}, "SF-268 CNS": {"test_system": "SF-268 CNS"}, "SF-295 CNS": {"test_system": "SF-295 CNS"}, "SF-539 CNS": {"test_system": "SF-539 CNS"}, "SK-MEL-2 melanoma": {"test_system": "SK-MEL-2 melanoma"}, "SK-MEL-28 melanoma": {"test_system": "SK-MEL-28 melanoma"}, "SK-MEL-5 melanoma": {"test_system": "SK-MEL-5 melanoma"}, "SK-OV-3 ovarian": {"test_system": "SK-OV-3 ovarian"}, "SN12C renal": {"test_system": "SN12C renal"}, "SNB-19 CNS": {"test_system": "SNB-19 CNS"}, "SNB-75 CNS": {"test_system": "SNB-75 CNS"}, "SW-620 colon": {"test_system": "SW-620 colon"}, "T-47D breast": {"test_system": "T-47D breast"}, "TK-10 renal": {"test_system": "TK-10 renal"}, "U251 CNS": {"test_system": "U251 CNS"}, "UACC-257 melanoma": {"test_system": "UACC-257 melanoma"}, "UACC-62 melanoma": {"test_system": "UACC-62 melanoma"}, "UO-31 renal": {"test_system": "UO-31 renal"}},
  "note": "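Cultured in 96-well plates, cells were exposed to test compound for 48 hours across five concentrations. Abbreviation: GI50, concentration required for 50% inhibition of growth. TGI is the concentration that stops growth completely.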",
  "data": [
    {"smiles": "O=C1c2[nH]cc(CN3CCN(CCO)CC3)c2C(=O)c2c1c(O)c1ccccc1c2O", "values": [
      {"measurement": "TGI", "setting": "NCI-H226 lung", "value": 28.4, "unit": "µM"},
      {"measurement": "GI50", "setting": "NCI-H23 lung", "value": 14.9, "unit": "µM"},
      {"measurement": "TGI", "setting": "NCI-H23 lung", "value": 39.4, "unit": "µM"},
      {"measurement": "GI50", "setting": "NCI-H460 lung", "value": 2.69, "unit": "µM"},
      {"measurement": "TGI", "setting": "NCI-H460 lung", "value": 12.3, "unit": "µM"},
      {"measurement": "GI50", "setting": "NCI-H522 lung", "value": 2.08, "unit": "µM"},
      {"measurement": "TGI", "setting": "NCI-H522 lung", "value": 9.05, "unit": "µM"},
      {"measurement": "GI50", "setting": "NCI/ADR-RES ovarian", "value": 9.64, "unit": "µM"},
      {"measurement": "TGI", "setting": "NCI/ADR-RES ovarian", "value": 28.3, "unit": "µM"},
      {"measurement": "GI50", "setting": "OVCAR-3 ovarian", "value": 4, "unit": "µM"},
      {"measurement": "TGI", "setting": "OVCAR-3 ovarian", "value": 16.3, "unit": "µM"},
      {"measurement": "GI50", "setting": "OVCAR-4 ovarian", "value": 13.3, "unit": "µM"},
      {"measurement": "TGI", "setting": "OVCAR-4 ovarian", "value": 29.4, "unit": "µM"},
      {"measurement": "GI50", "setting": "OVCAR-5 ovarian", "value": 16.5, "unit": "µM"},
      {"measurement": "TGI", "setting": "OVCAR-5 ovarian", "value": 33, "unit": "µM"},
      {"measurement": "GI50", "setting": "OVCAR-8 ovarian", "value": 5.52, "unit": "µM"},
      {"measurement": "TGI", "setting": "OVCAR-8 ovarian", "value": 17.7, "unit": "µM"},
      {"measurement": "GI50", "setting": "PC-3 prostate", "value": 2.7, "unit": "µM"},
      {"measurement": "TGI", "setting": "PC-3 prostate", "value": 8.78, "unit": "µM"},
      {"measurement": "GI50", "setting": "RPMI-8226 leukemia", "value": 1.52, "unit": "µM"},
      {"measurement": "TGI", "setting": "RPMI-8226 leukemia", "value": 4.16, "unit": "µM"},
      {"measurement": "GI50", "setting": "RXF 393 renal", "value": 6.03, "unit": "µM"},
      {"measurement": "TGI", "setting": "RXF 393 renal", "value": 22.9, "unit": "µM"},
      {"measurement": "GI50", "setting": "SF-268 CNS", "value": 5.9, "unit": "µM"},
      {"measurement": "TGI", "setting": "SF-268 CNS", "value": 24.2, "unit": "µM"},
      {"measurement": "GI50", "setting": "SF-295 CNS", "value": 2.56, "unit": "µM"},
      {"measurement": "TGI", "setting": "SF-295 CNS", "value": 10.9, "unit": "µM"},
      {"measurement": "GI50", "setting": "SF-539 CNS", "value": 1.52, "unit": "µM"},
      {"measurement": "TGI", "setting": "SF-539 CNS", "value": 3.11, "unit": "µM"},
      {"measurement": "GI50", "setting": "SK-MEL-2 melanoma", "value": 2.77, "unit": "µM"},
      {"measurement": "TGI", "setting": "SK-MEL-2 melanoma", "value": 8.06, "unit": "µM"},
      {"measurement": "GI50", "setting": "SK-MEL-28 melanoma", "value": 13.6, "unit": "µM"},
      {"measurement": "TGI", "setting": "SK-MEL-28 melanoma", "value": 28.7, "unit": "µM"},
      {"measurement": "GI50", "setting": "SK-MEL-5 melanoma", "value": 1.12, "unit": "µM"},
      {"measurement": "TGI", "setting": "SK-MEL-5 melanoma", "value": 3.27, "unit": "µM"},
      {"measurement": "GI50", "setting": "SK-OV-3 ovarian", "value": 18.7, "unit": "µM"},
      {"measurement": "TGI", "setting": "SK-OV-3 ovarian", "value": 37.5, "unit": "µM"},
      {"measurement": "GI50", "setting": "SN12C renal", "value": 2.18, "unit": "µM"},
      {"measurement": "TGI", "setting": "SN12C renal", "value": 9.92, "unit": "µM"},
      {"measurement": "GI50", "setting": "SNB-19 CNS", "value": 14.8, "unit": "µM"},
      {"measurement": "TGI", "setting": "SNB-19 CNS", "value": 32.5, "unit": "µM"},
      {"measurement": "GI50", "setting": "SNB-75 CNS", "value": 14.2, "unit": "µM"},
      {"measurement": "TGI", "setting": "SNB-75 CNS", "value": 32.8, "unit": "µM"},
      {"measurement": "GI50", "setting": "SW-620 colon", "value": 1.68, "unit": "µM"},
      {"measurement": "TGI", "setting": "SW-620 colon", "value": 3.48, "unit": "µM"},
      {"measurement": "GI50", "setting": "T-47D breast", "value": 19.2, "unit": "µM"},
      {"measurement": "TGI", "setting": "T-47D breast", "value": 38.6, "unit": "µM"},
      {"measurement": "GI50", "setting": "TK-10 renal", "value": 0.36, "unit": "µM"},
      {"measurement": "TGI", "setting": "TK-10 renal", "value": 6.78, "unit": "µM"},
      {"measurement": "GI50", "setting": "U251 CNS", "value": 5.31, "unit": "µM"},
      {"measurement": "TGI", "setting": "U251 CNS", "value": 25.9, "unit": "µM"},
      {"measurement": "GI50", "setting": "UACC-257 melanoma", "value": 8.33, "unit": "µM"},
      {"measurement": "TGI", "setting": "UACC-257 melanoma", "value": 25.2, "unit": "µM"},
      {"measurement": "GI50", "setting": "UACC-62 melanoma", "value": 4.53, "unit": "µM"},
      {"measurement": "TGI", "setting": "UACC-62 melanoma", "value": 9.01, "unit": "µM"},
      {"measurement": "GI50", "setting": "UO-31 renal", "value": 3.82, "unit": "µM"},
      {"measurement": "TGI", "setting": "UO-31 renal", "value": 18.8, "unit": "µM"}
    ]}
  ]
}
